These results are taken from publication PMC12689914, “Identification of a novel dual-targeting peptide inhibitor of SARS-CoV-2 RBD and NRP1 through structure-based virtual screening” (Frontiers in Pharmacology, 2025).

Non-standard residues stand in square brackets, D forms with d. Residues, ends and D or L forms follow the SMILES beside them.

This assay concerns SARS-CoV-2 Omicron XBB.1.5 pseudovirus. Particulars: Omicron XBB.1.5 pseudovirus, 48 h.

As usually defined, the EC50 is the concentration needed to bring the measured effect to its halfway point. Lower therefore signals greater potency.

Consider `CC(C)C[C@H](NC(=O)[C@H](CCC(=O)O)NC(=O)[C@H](C)NC(=O)[C@@H](N)CCC(=O)O)C(=O)N[C@H](CC(=O)O)C(=O)N[C@H](C(=O)N[C@@H](CO)C(=O)N[C@@H](CC(=O)O)C(=O)N[C@@H](C)C(=O)N[C@@H](Cc1ccccc1)C(=O)N[C@@H](Cc1ccc(O)cc1)C(=O)N[C@@H](CCCNC(=N)N)C(=O)N[C@@H](Cc1ccccc1)C(=O)N[C@@H](Cc1ccccc1)C(=O)N[C@@H](CCCNC(=N)N)C(=O)N[C@@H](CCCNC(=N)N)C(=O)N[C@@H](C)C(=O)N[C@@H](CCCNC(=N)N)C(=O)O)C(C)C` [Peptide-1] (H-EAEL[dD]VSDAFYRFFRRAR-OH; N-terminus and C-terminus assumed), for which the EC50 stood at 0.62 ± 0.03 µM.
